Consider 29 compounds from patent publication US20250171437A1 (Agios Pharmaceuticals,Inc., priority 2022, published 2025).

The experiment deals with T1, human PAH with the R408W mutation (A375 R408W cells) (Homo sapiens, UniProt P00439, R408W).
T1 construct: expressed in transfected cells
T1 sequence (P00439 1-452 R408W): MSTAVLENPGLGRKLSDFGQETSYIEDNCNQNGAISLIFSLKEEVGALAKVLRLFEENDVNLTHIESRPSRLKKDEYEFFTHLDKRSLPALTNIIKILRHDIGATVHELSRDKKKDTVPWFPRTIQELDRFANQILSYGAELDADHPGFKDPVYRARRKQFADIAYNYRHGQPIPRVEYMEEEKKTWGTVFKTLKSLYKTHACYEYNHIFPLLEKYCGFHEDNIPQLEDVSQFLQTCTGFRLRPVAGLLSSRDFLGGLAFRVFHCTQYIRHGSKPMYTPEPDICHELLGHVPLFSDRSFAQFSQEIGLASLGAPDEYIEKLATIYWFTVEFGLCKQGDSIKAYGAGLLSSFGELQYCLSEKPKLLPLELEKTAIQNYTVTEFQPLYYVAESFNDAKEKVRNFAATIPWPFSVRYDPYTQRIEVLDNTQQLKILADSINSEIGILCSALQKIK
Kind of experiment: Cell Based Phenylalanine Flux Assay. The following applies: 24 hrs with compound, then 20 μM sepiapterin and 800 μM 13C9,15N-Phenylalanine for 4 hours, 13C-Tyrosine by LC-MS, average where tested multiple times. The protocol:
Cells expressing R408W PAH were made by transducing A375 cells with lentivirus encoding human PAH with the R408W mutation in pLVX-Puro, then selecting with puromycin until stable cell lines were generated. A375 R408W cells were seeded into 96 well plates in DMEM+10% FBS at a density of 40,000 cells/well one hour prior to compound addition. Compounds were resuspended in DMSO, and 2-fold serial dilutions were performed to generate a 10-point dose curve. Compounds were added to plated cells in a total volume of 100 μl, and a final DMSO concentration of 0.5%. Each compound was tested in duplicate. Following compound addition, cells were placed in a 5% CO2, 37° C. tissue culture incubator for 24 hrs. After the incubation period, 20 μM sepiapterin and 800 μM 13C9,15N-Phenylalanine were added. After 4 hours, cell media was removed. An aliquot of 10 μl of cell media was combined with 200 μl of extraction buffer (80% acetonitrile/20% H2O) for each well. Determination of ^13C-Tyrosine concentration was assessed by liquid chromatography mass spectrometry.
Specific compounds disclosed herein were tested in the foregoing assay and they were determined to have an AC50 according to the following scores: (A) less than or equal to 0.500 μM, (B) greater than 0.500 and less than […], (C) greater than or equal to 1.000 and less than 5.000 μM, (D) greater than or equal to 5.000 μM, (E) no fit, and (NT) not tested, as shown below. Where a compound was tested multiple times, the average value of the tests is reported.

Where [1] appears, read: A375 cells expressing R408W PAH.

Consider `Cc1ccc2oc([C@H]3c4nc[nH]c4CCN3C(=O)c3oc(-c4cncn4C)nc3C(F)F)nc2c1` [Example 757, (R)-(4-(difluoromethyl)-2-(1-methyl-1H-imidazol-5-yl)oxazol-5-yl)(4-(5-methylbenzo[d]oxazol-2-yl)-6,7-dihydro-1H-imidazo[4,5-c]pyridin-5(4H)-yl)methanone], for which, under “A375 R408W cells”, the AC50 fell in the range of 1000 to 5000 nM.

Take `N#Cc1ncoc1C(=O)N1CCc2[nH]cnc2C1c1nc2cc(F)ccc2o1` (centres unmarked): under setting [1], the AC50 is not below 5000 nM.

`COc1ccc2c(C(=O)N3CCc4[nH]cnc4[C@H]3c3nc4cc(F)ccc4o3)cnn2c1` [Example 73, (S)-(4-(5-fluorobenzo[d]oxazol-2-yl)-6,7-dihydro-1H-imidazo[4,5-c]pyridin-5(4H)-yl)(6-methoxypyrazolo[1,5-a]pyridin-3-yl)methanone]: the AC50 (A375 R408W cells) was 500 to 1000 nM.

Consider `O=C(c1ocnc1C(F)F)N1CCc2[nH]cnc2[C@H]1c1nc2cc(F)ccc2o1` [Example 51, (S)-(4-(difluoromethyl)oxazol-5-yl)(4-(5-fluorobenzo[d]oxazol-2-yl)-6,7-dihydro-1H-imidazo[4,5-c]pyridin-5(4H)-yl)methanone], for which the AC50 (A375 R408W cells) is not above 500 nM.

Consider `O=C(CCc1nccs1)N1CCc2[nH]cnc2C1c1nc2ccc(Br)cc2o1` (centres unmarked), for which, under setting [1], the AC50 was not below 5000 nM.

Consider `CN1CCN(c2ccc3c(C(=O)N4CCc5[nH]cnc5[C@@H]4c4nc5cc(F)ccc5o4)cnn3c2)CC1` [Example 66, (R)-(4-(5-fluorobenzo[d]oxazol-2-yl)-6,7-dihydro-1H-imidazo[4,5-c]pyridin-5(4H)-yl)(6-(4-methylpiperazin-1-yl)pyrazolo[1,5-a]pyridin-3-yl)methanone], for which the AC50 (A375 R408W cells) is not below 5000 nM.

`CC(C)(C)c1ncc(C(=O)N2CCc3[nH]cnc3[C@H]2c2nc3cc(F)ccc3o2)s1` [Example 17, (S)-(2-(tert-butyl)thiazol-5-yl)(4-(5-fluorobenzo[d]oxazol-2-yl)-6,7-dihydro-1H-imidazo[4,5-c]pyridin-5(4H)-yl)methanone]: the AC50 (A375 R408W cells) is not above 500 nM.

`O=C(c1cnn2cc(N3CCC(O)CC3)ccc12)N1CCc2[nH]cnc2[C@@H]1c1nc2cc(F)cc(F)c2o1` [Example 700, (R)-(4-(5,7-difluorobenzo[d]oxazol-2-yl)-6,7-dihydro-1H-imidazo[4,5-c]pyridin-5(4H)-yl)(6-(4-hydroxypiperidin-1-yl)pyrazolo[1,5-a]pyridin-3-yl)methanone]: the AC50 (A375 R408W cells) is not below 5000 nM.

For the compound `O=C(c1nnc(-c2ccc(F)cc2F)o1)N1CCc2[nH]cnc2[C@H]1c1nc2cc(F)ccc2o1` [Example 84, (S)-(5-(2,4-difluorophenyl)-1,3,4-oxadiazol-2-yl)(4-(5-fluorobenzo[d]oxazol-2-yl)-6,7-dihydro-1H-imidazo[4,5-c]pyridin-5(4H)-yl)methanone], the AC50 (A375 R408W cells) was not above 500 nM.

With `O=C(c1nnc(-c2cccnc2)o1)N1CCc2[nH]cnc2[C@@H]1c1nc2cc(F)ccc2o1` [Example 400, (R)-(4-(5-fluorobenzo[d]oxazol-2-yl)-6,7-dihydro-1H-imidazo[4,5-c]pyridin-5(4H)-yl)(5-(pyridin-3-yl)-1,3,4-oxadiazol-2-yl)methanone], for the setting “A375 R408W cells”, the AC50 lay in the range of 1000 to 5000 nM.

With `Cn1cc(-c2nc(C(F)(F)F)c(C(=O)N3CCc4[nH]cnc4[C@@H]3c3nc4cccc(F)c4o3)o2)cn1` [Example 670, (R)-(4-(7-fluorobenzo[d]oxazol-2-yl)-6,7-dihydro-1H-imidazo[4,5-c]pyridin-5(4H)-yl)(2-(1-methyl-1H-pyrazol-4-yl)-4-(trifluoromethyl)oxazol-5-yl)methanone], where the note is “A375 R408W cells”, the concentration at half-maximal activity (AC50) is not above 500 nM.

`CC(C)(O)c1ncc(C(=O)N2CCc3[nH]cnc3C2c2nc3cc(F)ccc3o2)o1` (centres unmarked): the half-maximal activity concentration (AC50) under setting [1] lay in the range of 1000 to 5000 nM.

Consider `Cc1ccc2nc([C@H]3c4nc[nH]c4CCN3C(=O)c3nnc(-c4ncccc4F)o3)oc2c1` [Example 680, (R)-(5-(3-fluoropyridin-2-yl)-1,3,4-oxadiazol-2-yl)(4-(6-methylbenzo[d]oxazol-2-yl)-6,7-dihydro-1H-imidazo[4,5-c]pyridin-5(4H)-yl)methanone], for which the half-maximal activity concentration (AC50) (A375 R408W cells) was in the range of 1000 to 5000 nM.

Turning to `CN(C)Cc1cn2ncc(C(=O)N3CCc4[nH]cnc4[C@H]3c3nc4cc(F)ccc4o3)c2cc1Cl` [Example 203, (S)-(5-chloro-6-((dimethylamino)methyl)pyrazolo[1,5-a]pyridin-3-yl)(4-(5-fluorobenzo[d]oxazol-2-yl)-6,7-dihydro-1H-imidazo[4,5-c]pyridin-5(4H)-yl)methanonee], for the setting “A375 R408W cells”, the concentration at half-maximal activity (AC50) lay within 500 to 1000 nM.

As for `Cc1ccc2oc(C3c4nc[nH]c4CCN3C(=O)c3cnco3)nc2c1` (centres unmarked), the AC50 under setting [1] was not below 5000 nM.

Consider `Cc1nc(C(=O)N2CCc3[nH]cnc3C2c2nc3c(F)ccc(F)c3o2)n(C)n1` (centres unmarked), for which the AC50 under setting [1] was 1000 to 5000 nM.

As to `Cc1ccc2oc(C3c4nc[nH]c4CCN3C(=O)c3nnc(C)o3)nc2c1` (centres unmarked), the AC50 under setting [1] was not below 5000 nM.

Take `O=C(c1nncn1C1CC1)N1CCc2[nH]cnc2C1c1nc2cc(F)ccc2o1` (centres unmarked): the AC50 under setting [1] is not below 5000 nM.

Consider `O=C(c1oc(-c2ccccn2)nc1C1CC1)N1CCc2[nH]cnc2[C@@H]1c1nc2cc(F)ccc2o1` [Example 44, (R)-(4-cyclopropyl-2-(pyridin-2-yl)oxazol-5-yl)(4-(5-fluorobenzo[d]oxazol-2-yl)-6,7-dihydro-1H-imidazo[4,5-c]pyridin-5(4H)-yl)methanone], for which the AC50 (A375 R408W cells) is 1000 to 5000 nM.

For `CC1CN(C(=O)c2ocnc2C(F)F)[C@@H](c2nc3cccc(F)c3o2)c2nc[nH]c21` (single isomer, unassigned) [Example 806], the concentration at half-maximal activity (AC50) (A375 R408W cells) is 1000 to 5000 nM.

On to `CC(C)(O)c1nc(C(F)(F)F)c(C(=O)N2CCc3[nH]cnc3[C@@H]2c2nc3c(F)cccc3o2)o1` [Example 258, (R)-(4-(4-fluorobenzo[d]oxazol-2-yl)-6,7-dihydro-1H-imidazo[4,5-c]pyridin-5(4H)-yl)(2-(2-hydroxypropan-2-yl)-4-(trifluoromethyl)oxazol-5-yl)methanone], for which the AC50 (A375 R408W cells) is 1000 to 5000 nM.

For `Cn1cc(-c2nnc(C(=O)N3CCc4[nH]cnc4[C@H]3c3nc4c(F)c(F)ccc4o3)o2)cn1` [Example 645, (S)-(4-(4,5-difluorobenzo[d]oxazol-2-yl)-6,7-dihydro-1H-imidazo[4,5-c]pyridin-5(4H)-yl)(5-(1-methyl-1H-pyrazol-4-yl)-1,3,4-oxadiazol-2-yl)methanone], under “A375 R408W cells”, the half-maximal activity concentration (AC50) was 1000 to 5000 nM.

In the case of `Cc1nnc(C(=O)N2CCc3[nH]cnc3C2c2nc3c(F)ccc(F)c3o2)o1` (centres unmarked), under setting [1], the AC50 is 1000 to 5000 nM.

Consider `COc1cccc2oc([C@H]3c4nc[nH]c4CCN3C(=O)c3nnc(-c4cnn(C)c4)o3)nc12` [Example 625, (R)-(4-(4-methoxybenzo[d]oxazol-2-yl)-6,7-dihydro-1H-imidazo[4,5-c]pyridin-5(4H)-yl)(5-(1-methyl-1H-pyrazol-4-yl)-1,3,4-oxadiazol-2-yl)methanone], for which, where the note is “A375 R408W cells”, the half-maximal activity concentration (AC50) is 1000 to 5000 nM.

In the case of `COc1cccc2oc([C@@H]3c4nc[nH]c4CCN3C(=O)c3oc(C(C)(C)O)nc3C(F)F)nc12` [Example 427, (S)-(4-(difluoromethyl)-2-(2-hydroxypropan-2-yl)oxazol-5-yl)(4-(4-methoxybenzo[d]oxazol-2-yl)-6,7-dihydro-1H-imidazo[4,5-c]pyridin-5(4H)-yl)methanone], the AC50 (A375 R408W cells) is not above 500 nM.

On to `O=C(c1ocnc1C(F)(F)F)N1CCc2[nH]cnc2[C@H]1c1nc2c(F)ccc(F)c2o1` [Example 795, (S)-(4-(4,7-difluorobenzo[d]oxazol-2-yl)-6,7-dihydro-1H-imidazo[4,5-c]pyridin-5(4H)-yl)(4-(trifluoromethyl)oxazol-5-yl)methanone], for which, for the setting “A375 R408W cells”, the AC50 is not above 500 nM.

Turning to `O=C(c1cnn2cc(N3CCC(O)CC3)ccc12)N1CCc2[nH]cnc2[C@@H]1c1nc2c(F)ccc(F)c2o1` [Example 896, (R)-(4-(4,7-difluorobenzo[d]oxazol-2-yl)-6,7-dihydro-1H-imidazo[4,5-c]pyridin-5(4H)-yl)(6-(4-hydroxypiperidin-1-yl)pyrazolo[1,5-a]pyridin-3-yl)methanone], the AC50 (A375 R408W cells) was not below 5000 nM.

As to `O=C(c1cnn2cc(-c3ccccn3)ccc12)N1CCc2[nH]cnc2[C@H]1c1nc2cccc(F)c2o1` [Example 451, (S)-(4-(7-fluorobenzo[d]oxazol-2-yl)-6,7-dihydro-1H-imidazo[4,5-c]pyridin-5(4H)-yl)(6-(pyridin-2-yl)pyrazolo[1,5-a]pyridin-3-yl)methanone], the AC50 (A375 R408W cells) was not above 500 nM.

Consider `Cn1cncc1-c1nnc(C(=O)N2CCc3[nH]cnc3C2c2nc3cc(F)ccc3o2)o1` (centres unmarked), for which the AC50 under setting [1] is 1000 to 5000 nM.

What is called AC50 is the concentration giving half of the maximal activity seen.
